This is an account of results in US20120065165A1, “COMPOSITIONS AND METHODS OF TREATING ENDOTHELIAL DISORDERS” (ARGINETIX, INC, priority 2008, published 2012).

In one experiment the target is T1, arginase II (Homo sapiens, UniProt P78540).
T1 sequence (P78540 23-354): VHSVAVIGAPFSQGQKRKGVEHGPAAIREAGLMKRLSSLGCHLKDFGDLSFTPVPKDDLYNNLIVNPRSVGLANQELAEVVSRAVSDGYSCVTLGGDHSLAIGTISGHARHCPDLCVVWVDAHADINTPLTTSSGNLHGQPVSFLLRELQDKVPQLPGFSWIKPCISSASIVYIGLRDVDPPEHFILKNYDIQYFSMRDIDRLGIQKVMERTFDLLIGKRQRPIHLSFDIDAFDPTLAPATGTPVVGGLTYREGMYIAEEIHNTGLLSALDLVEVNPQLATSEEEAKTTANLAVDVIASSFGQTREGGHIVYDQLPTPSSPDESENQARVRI
Conditions: cited from earlier work.

In experiment [1] the test system is tissue explants from diabetic ZDF rats. The experiment is described as follows: Ex vivo ABH treatment of tissue explants from type 2 diabetic ZDF rats (Example 6). In kind it is cell-based, rat. Conditions: vs ZLC rats. The source says:
Biochemical and functional parameters of endothelial functions in a model of type 2 diabetes (Zucker Diabetic Fatty (ZDF) Rats) and in a control rat strain (Zucker Lean Control (ZLC) rat), are used to investigate the ex vivo effectiveness of ABH in improving these parameters. Vascular arginase activity and its role in the development of diabetic endothelial pathology have been previously characterized in models of Type 1 diabetes (Jelodar, et al., 2007 J. Reprod. Dev. 53: 317-321; Romero, et al., 2008 Circ. Res. 102: 95-102). […] Vascular endothelial function is measured using organ chambers in isolated rat arterial rings and in strips of erectile tissue collected from each rat strain.
ZDF rats have a mutation in the gene for the leptin receptor. […] Arginase I and II and eNOS mRNA and protein concentrations in these tissues are determined by RT-PCR and Western blot, respectively. Arginase activity is measured, as described in Example 4, by homogenizing the rat vessels in lysis buffer, removing cellular debris by centrifugation, and monitoring the hydrolysis of L-arginine using calorimetric determination of urea after the addition of isonitrosopropiophenone. […] The cellular location of arginase in this model of type 2 diabetes is determined by comparing the results of RT-PCR, Western blot, and arginase activity assays in endothelial-intact and endothelial-denuded aortic rings. […]

The subject of another experiment is eNOS. Kind of experiment: eNOS activity (L-arginine to L-citrulline) in human diabetic corpus cavernosum extracts. Conditions: 1 mM ABH added to diabetic penile extracts. Type of experiment: biochemical. The text has this:
In order to study the role of arginase in the development of these defects, corpus cavernosum tissue extracts were obtained from non-diabetic and diabetic men undergoing placement of a penile prosthesis for the management of their severe ED (Bivalacqua, et al., 2001 Biochem. Biophys. Res. Commun. 283: 923-927). […] Constitutive nitric oxide synthase activity (eNOS activity; calcium-dependent conversion of L-arginine to L-citrulline) is […] in human corporal tissue from diabetic patients vs. controls (See FIG. 7C), *P<0.05 when compare to controls; in the presence of the selective arginase inhibitor ABH, eNOS activity in human diabetic corpora caversosa is restored, **P<0.05 when compared to diabetic (Bivalacqua, et al., 2001 Biochem. Biophys. Res. Commun. 283: 923-927).
Diabetic corporal tissue extracts were prepared for the measurement of arginase activity by the production of urea in the presence of labeled arginine (FIG. 7B).

The next experiment deals with arginase I. Conditions: tissue extracts from diabetic corpus cavernosa; cited from earlier work.
The test system of another experiment is aged Fisher rats. The experiment is described as follows: Vascular stiffness by pulse wave velocity (PWV) in Fisher rats. Type of experiment: in vivo, rat. As to the method:
When the heart contracts it generates a pulse, or energy wave, that travels through the circulatory system. […] PWV was determined in aged (22-26 months) Fisher rats, treated with ABH as described in Example 1. […] PWV was measured before and after 28 days of treatment with ABH (6 mg/kg) (See FIG. 5A). ABH improved vascular function in aortic rings tested in organ chambers (See FIG. 5B), while an endothelial-independent NO donor, SNP had no effect (C). *p<0.01 vs. young and #p<0.05 vs. old pre-treated, (n=3-8). […] This affect was not observed in untreated aged rats. There was a small but statistically significant increase in vascular stiffness in young control rats over the 28 days of the experiment. This change however was not observed in rats that were treated with ABH.

With `N[C@@H](CCCCB(O)O)C(=O)O` [ABH, 2(S)-Amino-6-boronohexanoic acid], at arginase II, the “potency as inhibitor of arginase II” value is listed as “most potent inhibitor”. Further, the “biochemical (arginase activity, NO, ROS) and functional (vascular endothelial, erectile) parameters” value in experiment [1] is “return these biochemical and functional parameters to values that are similar to those of ZLC rats”. The eNOS activity result in the experiment with eNOS is “improved to levels that were comparable to those of control corpus cavernosum”. The “levels of cGMP” value with arginase I is “increase levels of cGMP”. Besides, the “vascular stiffness (pulse wave velocity, PWV)” value in the experiment on aged Fisher rats (aged (22-26 months) rats, ABH 6 mg/kg 28 days) was “marked decrease in vascular stiffness”. The “increase in vascular stiffness over the 28 days of the experiment” value in the experiment on aged Fisher rats (young rats, ABH treated vs young control rats) is “not observed”.
